24 compounds from patent publication US11136301B2, “Broad spectrum antiviral compounds and uses thereof” (The Regents Of The University Of California, priority 2015, dated 2021) can be followed below.

Like-named read-outs stand apart in the source and are kept apart here.

The test system of the assay is wild-type HIV-1 (HIV-1LAI) in H9 cells (non-permissive). In words: microbe, parasite or virus in culture. It is filed as cell-based.
Where [1] appears, read: read-out: Antiviral activity (IC50 μM) H9 cells, Table 5, wild-type HIV-1, non-permissive H9 cells.
[2] abbreviates: read-out: Antiviral activity (IC50 μM) H9 cells, Table 8, wild-type HIV-1, non-permissive H9 cells.
[3] abbreviates: read-out: Antiviral activity (IC50 μM) H9 cells, wild-type HIV-1 (HIV-1LAI), H9 cells (non-permissive), RT activity in culture supernatants, compounds 1 to 50 μM.
[4] abbreviates: Human immunodeficiency virus 1, H9, read-out: Antiviral activity (IC50 μM) H9 cells, Table 5, wild-type HIV-1, non-permissive H9 cells.
Where [5] appears, read: Human immunodeficiency virus 1, H9, read-out: Antiviral activity (IC50 μM) H9 cells, Table 8, wild-type HIV-1, non-permissive H9 cells.
Where [6] appears, read: Human immunodeficiency virus 1, H9, read-out: Antiviral activity (IC50 μM) H9 cells, wild-type HIV-1 (HIV-1LAI), H9 cells (non-permissive), RT activity in culture supernatants, compounds 1 to 50 μM.
Where [7] appears, read: read-out: Antiviral activity (IC50 μM) H9, Table 2, wild-type HIV-1, non-permissive H9 cells.
Setting [8] is: Human immunodeficiency virus 1, H9, read-out: Antiviral activity (IC50 μM) H9 Cells, Table 4, wild-type HIV-1, non-permissive H9 cells.
The mark [9] stands for this setting: Human immunodeficiency virus 1, H9, read-out: Antiviral activity (IC50 μM) H9 Cells, Table 7, wild-type HIV-1, non-permissive H9 cells.

Take `COc1cccc(F)c1-n1cc(-c2ccccc2Sc2ccc(C(=O)O)cc2)nn1` [Compound 7gx, 2-Hydroxy-N,N,N-trimethylethanaminium 4-((2-(1-(2-fluoro-6-methoxyphenyl)-1H-1,2,3-triazol-4-yl)phenyl)thio)benzoate]: the 50% inhibitory concentration (IC50) – broadly, the concentration that gives 50% inhibition – is over 50 µM under setting [1], over 50 µM under setting [2] and over 50 µM under setting [3].

As to `COc1cccc(OC)c1-n1cc(-c2ccccc2Sc2ccc(C(F)(F)F)cc2)nn1` [Compound 6dx, 1-(2,6-Dimethoxyphenyl)-4-(2-((4-(trifluoromethyl)phenyl)thio)phenyl)-1H-1,2,3-triazole], the IC50 under setting [4] amounted to 5.3 µM, the IC50 under setting [5] amounted to 5.3 µM and the IC50 under setting [6] was found to be 5.3 µM.

For `COc1ccc(-n2cc(-c3ccccc3Sc3ccc(C(F)(F)F)cc3)nn2)c(OC)c1` [Compound 4dx, 1-(2,4-Dimethoxyphenyl)-4-(2-((4-(trifluoromethyl)phenyl)thio)phenyl)-1H-1,2,3-triazole], the IC50 is 1.1 µM under setting [4], 1.1 µM under setting [5] and 1.1 µM under setting [6].

Turning to `COc1ccc(OC)c(-n2cc(-c3ccccc3S(=O)(=O)c3ccc(C(F)(F)F)cc3)nn2)c1` [Compound 5dy, 1-(2,5-Dimethoxyphenyl)-4-(2-((4-(trifluoromethyl)phenyl)sulfonyl)phenyl)-1H-1,2,3-triazole], the 50% inhibitory concentration (IC50) was determined as 4.3 µM under setting [4], 4.3 µM under setting [5] and 4.3 µM under setting [6].

Turning to `COc1cccc(-n2cc(-c3ccccc3Sc3ccc(C(=O)O)cc3)nn2)c1OC` [Compound 3gx, 2-Hydroxy-N,N,N-trimethylethanaminium 4-((2-(1-(2,3-dimethoxyphenyl)-1H-1,2,3-triazol-4-yl)phenyl)thio)benzoate], the 50% inhibitory concentration (IC50) under setting [7] worked out at 4.3 µM; the concentration for half-maximal inhibition (IC50) (read-out: Antiviral activity (IC50 μM) H9 Cells, Table 4, wild-type HIV-1, non-permissive H9 cells) was 4.3 µM; the IC50 (read-out: Antiviral activity (IC50 μM) H9 Cells, Table 7, wild-type HIV-1, non-permissive H9 cells) was 4.3 µM; the IC50 under setting [1] is 4.3 µM; the IC50 under setting [2] was 4.3 µM; the IC50 under setting [3] stood at 4.3 µM.

For `COc1cccc(OC)c1-n1cc(-c2ccccc2S(=O)(=O)c2ccc(C(F)(F)F)cc2)nn1` [Compound 6dy, 1-(2,6-Dimethoxyphenyl)-4-(2-((4-(trifluoromethyl)phenyl)sulfonyl)phenyl)-1H-1,2,3-triazole], the IC50 was over 50 µM under setting [4], over 50 µM under setting [5] and over 50 µM under setting [6].

For `COc1ccc(OC)c(-n2cc(-c3ccccc3Sc3ccc(C(=O)O)cc3)nn2)c1` [Compound 5gx, 2-Hydroxy-N,N,N-trimethylethanaminium 4-((2-(1-(2,5-dimethoxyphenyl)-1H-1,2,3-triazol-4-yl)phenyl)thio)benzoate], the half-inhibitory concentration (IC50) under setting [1] is over 50 µM, the IC50 under setting [2] was over 50 µM and the IC50 under setting [3] is over 50 µM.

For the compound `COc1cccc(-n2cc(-c3ccccc3Sc3ccc(N)cc3)nn2)c1OC` [Compound 3ex, 4-((2-(1-(2,3-Dimethoxyphenyl)-1H-1,2,3-triazol-4-yl)phenyl)thio)aniline], the 50% inhibitory concentration (IC50) under setting [4] was found to be 5 µM, the IC50 under setting [5] was 5 µM and the IC50 under setting [6] was 5 µM.

As for `COc1cccc(OC)c1-n1cc(-c2ccccc2Sc2ccc(N)cc2)nn1` [Compound 6ex, 4-((2-(1-(2,6-Dimethoxyphenyl)-1H-1,2,3-triazol-4-yl)phenyl)thio)amine], the half-inhibitory concentration (IC50) was 1.5 µM under setting [8]; 1.5 µM under setting [9]; 1.5 µM under setting [4]; 1.5 µM under setting [5]; 1.5 µM under setting [6]; 1 to 3 µM (Human immunodeficiency virus 1, H9, read-out: IC50, anti-HIV-1 activity, non-permissive H9 cells).

On to `COc1ccc(Sc2ccccc2-c2cn(-c3ccccc3OC)nn2)cc1` [Compound 2cx, 1-(2-Methoxyphenyl)-4-(2-((4-methoxyphenyl)thio)phenyl)-1H-1,2,3-triazole], for which the IC50 stood at 13.6 µM under setting [4], 13.6 µM under setting [5] and 13.6 µM under setting [6].

`COc1ccc(Sc2ccccc2-c2cn(-c3c(F)cccc3OC)nn2)cc1` [Compound 7cx, 1-(2-Fluoro-6-methoxyphenyl)-4-(2-((4-methoxyphenyl)thio)phenyl)-1H-1,2,3-triazole]: the IC50 is over 50 µM under setting [4], over 50 µM under setting [5] and over 50 µM under setting [6].

With `COc1ccc(-n2cc(-c3ccccc3Sc3ccc(C(=O)O)cc3)nn2)c(OC)c1` [Compound 4gx, 2-Hydroxy-N,N,N-trimethylethanaminium 4-((2-(1-(2,4-dimethoxyphenyl)-1H-1,2,3-triazol-4-yl)phenyl)thio)benzoate], the concentration for half-maximal inhibition (IC50) is over 50 µM under setting [1], over 50 µM under setting [2] and over 50 µM under setting [3].

Consider `COc1ccc(Sc2ccccc2-c2cn(-c3cccc(OC)c3OC)nn2)cc1` [Compound 3cx, 1-(2,3-Dimethoxyphenyl)-4-(2-((4-methoxyphenyl)thio)phenyl)-1H-1,2,3-triazole], for which the IC50 by setting is: under setting [8], 4.7 µM; under setting [9], 4.7 µM; under setting [4], 4.7 µM; under setting [5], 4.7 µM; under setting [6], 4.7 µM.

Consider `COc1cccc(-n2cc(-c3ccccc3S(=O)(=O)c3ccc(C(=O)O)cc3)nn2)c1OC` [Compound 3gy, 2-Hydroxy-N,N,N-trimethylethanaminium 4-((2-(1-(2,3-dimethoxyphenyl)-1H-1,2,3-triazol-4-yl)phenyl)sulfonyl)benzoate], for which the half-inhibitory concentration (IC50) runs as follows: under setting [7], over 50 µM; under setting [1], over 50 µM; under setting [2], over 50 µM; under setting [3], over 50 µM.

`COc1ccccc1-n1cc(-c2ccccc2Sc2ccc(C(=O)O)cc2)nn1` [Compound 2gx, 2-Hydroxy-N,N,N-trimethylethanaminium 4-((2-(1-(2-methoxyphenyl)-1H-1,2,3-triazol-4-yl)phenyl)thio)benzoate]: the IC50 runs as follows: under setting [7], over 50 µM; under setting [1], over 50 µM; under setting [2], over 50 µM; under setting [3], over 50 µM.

Take `COC(=O)c1ccc(S(=O)(=O)c2ccccc2-c2cn(-c3c(F)cccc3OC)nn2)cc1` [Compound 7by, Methyl 4-((2-(1-(2-fluoro-6-methoxyphenyl)-1H-1,2,3-triazol-4-yl)phenyl)sulfonyl)benzoate]: the 50% inhibitory concentration (IC50) under setting [4] is over 50 µM, the 50% inhibitory concentration (IC50) under setting [5] is over 50 µM and the IC50 under setting [6] is over 50 µM.

`COC(=O)c1ccc(S(=O)(=O)c2ccccc2-c2cn(-c3ccc(OC)cc3OC)nn2)cc1` [Compound 4by, Methyl 4-((2-(1-(2,4-dimethoxyphenyl)-1H-1,2,3-triazol-4-yl)phenyl)sulfonyl)benzoate]: the IC50 under setting [4] is 7.6 µM, the half-inhibitory concentration (IC50) under setting [5] was found to be 7.6 µM and the IC50 under setting [6] is 7.6 µM.

For `COc1cccc(OC)c1-n1cc(-c2ccccc2Sc2ccc([N+](=O)[O-])cc2)nn1` [Compound 6ax, 1-(2,6-Dimethoxyphenyl)-4-(2-((4-nitrophenyl)thio)phenyl)-1H-1,2,3-triazole], the concentration for half-maximal inhibition (IC50) runs as follows: under setting [4], 6.3 µM; under setting [5], 6.3 µM; under setting [6], 6.3 µM.

On to `COc1cccc(OC)c1-n1cc(-c2ccccc2Sc2ccc(C(=O)O)cc2)nn1` [Compound 6gx, 2-Hydroxy-N,N,N-trimethylethanaminium 4-((2-(1-(2,6-dimethoxyphenyl)-1H-1,2,3-triazol-4-yl)phenyl)thio)benzoate], for which the 50% inhibitory concentration (IC50) under setting [7] is 52 µM, the concentration for half-maximal inhibition (IC50) under setting [1] stood at 52 µM, the 50% inhibitory concentration (IC50) under setting [2] amounted to 52 µM and the IC50 under setting [3] amounted to 52 µM.

As for `COc1ccc(-n2cc(-c3ccccc3Sc3ccc([N+](=O)[O-])cc3)nn2)c(OC)c1` [Compound 4ax, 1-(2,4-Dimethoxyphenyl)-4-(2-((4-nitrophenyl)thio)phenyl)-1H-1,2,3-triazole], the IC50 under setting [4] is over 50 µM, the half-inhibitory concentration (IC50) under setting [5] is over 50 µM and the IC50 under setting [6] is over 50 µM.

On to `COc1ccc(-n2cc(-c3ccccc3S(=O)(=O)c3ccc(N)cc3)nn2)c(OC)c1` [Compound 4ey, 4-((2-(1-(2,4-Dimethoxyphenyl)-1H-1,2,3-triazol-4-yl)phenyl)sulfonyl)aniline], for which the IC50 was over 50 µM under setting [4], over 50 µM under setting [5] and over 50 µM under setting [6].

On to `COc1ccc(Sc2ccccc2-c2cn(-c3ccc(OC)cc3OC)nn2)cc1` [Compound 4cx, 1-(2,4-Dimethoxyphenyl)-4-(2-((4-methoxyphenyl)thio)phenyl)-1H-1,2,3-triazole], for which the IC50 reads like this: under setting [4], over 50 µM; under setting [5], over 50 µM; under setting [6], over 50 µM.

As for `COc1ccc(-n2cc(-c3ccccc3Sc3ccc(N)cc3)nn2)c(OC)c1` [Compound 4ex, 4-((2-(1-(2,4-Dimethoxyphenyl)-1H-1,2,3-triazol-4-yl)phenyl)thio)aniline], the concentration for half-maximal inhibition (IC50) was over 50 µM under setting [4], over 50 µM under setting [5] and over 50 µM under setting [6].

In the case of `COc1ccc(-n2cc(-c3ccccc3S(=O)(=O)c3ccc(C(=O)O)cc3)nn2)c(OC)c1` [Compound 4fy, 4-((2-(1-(2,4-Dimethoxyphenyl)-1H-1,2,3-triazol-4-yl)phenyl)sulfonyl)benzoic Acid], the concentration for half-maximal inhibition (IC50) is over 50 µM under setting [4], over 50 µM under setting [5] and over 50 µM under setting [6].
